The record followed here is patent publication US9776990B2, “Isoindolone derivatives” (AbbVie Inc., priority 2012, dated 2017).

The target in assay [1] is BRD4 (BDII_E352-M457) (Homo sapiens (Human), UniProt O60885). The assay is described as follows: TR-FRET bromodomain binding assay, BRD4 second bromodomain. As to conditions: His-tagged BD2, 30 nM Alexa647 probe. As for the experimental part: (§1) A time-resolved fluorescence resonance energy transfer (TR-FRET) assay was used to determine the affinities of compounds of the Examples listed in Table 1 for each bromodomain of BRD4. His-tagged first (BD1: amino acids K57-E168) and second (BD2: amino acids E352-E168) bromodomains of BRD4 were expressed and purified. An Alexa647-labeled BET-inhibitor was used as the fluorescent probe in the assay.
(§2) Compound dilution series were prepared in DMSO via a 3-fold serial dilution from 2.5 mM to 42 nM. Compounds were then diluted 6:100 in assay buffer (20 mM Sodium Phosphate, pH 6.0, 50 mM NaCl, 1 mM EDTA, 0.01% Triton X-100, 1 mM DTT) to yield 3× working solutions. Six microliters (μL) of the working solution was then transferred to white, low-volume assay plates (Costar #3673). A 1.5× assay mixture containing His-tagged bromodomain, Europium-conjugated anti-His antibody (Invitrogen PV5596) and the Alexa-647-conjugated probe molecule was also prepared. Twelve μL of this solution were added to the assay plate to reach a final volume of 18 μL. The final concentration of 1× assay buffer contains 2% DMSO, 50 μM−0.85 nM compound, 8 nM bromodomain, 1 nM antibody and 100 or 30 nM probe (for BDI or BDII, respectively). After a one-hour incubation at room temperature, TR-FRET ratios were determined using an Envision multilabel plate reader (Ex 340, Em 495/520).
(§3) TR-FRET data were normalized to the means of 24 no-compound controls (“high”) and 8 controls containing 1 μM un-labeled probe (“low”). Percent inhibition was plotted as a function of compound concentration and the data were fit with the 4 parameter logistic equation to obtain IC50s Inhibition constants (Ki) were calculated from the IC50s, probe Kd and probe concentration. Typical Z′ values were between 0.65 and 0.75. The minimum significant ratio was determined to evaluate assay reproducibility (Eastwood et al., (2006) J Biomol Screen, 11: 253-261). The MSR was determined to be 2.03 for BDI and 1.93 for BDII, and a moving MSR (last six run MSR overtime) for both BDI and BDII was typically <3.
For orientation: Time-resolved FRET reads energy transfer from a long-lived donor to a nearby acceptor.

For assay [2], the target named is BRD4 (BDI_K57-E168) (Homo sapiens (Human), UniProt O60885). Kind of assay: TR-FRET bromodomain binding assay, BRD4 first bromodomain. As to conditions: His-tagged BD1, 100 nM Alexa647 probe. As for the experimental part:
as §1, §2, §3

What is called Ki is the dissociation constant of the complex between target and ligand, obtained from inhibition or displacement. A high value points to a looser hold on the target. Consider `Cc1[nH]c(-c2ccccc2Oc2ccccc2)c2c1C(=O)CC(C(C)C)C2` (centres unmarked) [Example 70, 3-methyl-1-(2-phenoxyphenyl)-6-(propan-2-yl)-2,5,6,7-tetrahydro-4H-isoindol-4-one], for which the Ki in assay [1] is 2.22 µM; in assay [2], 1.2 µM.
The corresponding values for `Cc1[nH]c(-c2ccccc2OCc2cccc3ccsc23)c2c1C(=O)CCC2` [Example 36, 1-[2-(1-benzothiophen-7-ylmethoxy)phenyl]-3-methyl-2,5,6,7-tetrahydro-4H-isoindol-4-one] are 9.73 µM and 8.83 µM.
The corresponding values for `Cc1ccccc1OCc1ccccc1-c1[nH]c(C)c2c1CCCC2=O` [Example 25, 3-methyl-1-{2-[(2-methylphenoxy)methyl]phenyl}-2,5,6,7-tetrahydro-4H-isoindol-4-one] are 15.1 µM and 4.24 µM.
For `Cc1[nH]c(-c2cccc3[nH]cnc23)c2c1C(=O)CCC2` [Example 21, 1-(1H-benzimidazol-4-yl)-3-methyl-2,5,6,7-tetrahydro-4H-isoindol-4-one], in that order: 5.92 µM and 1.86 µM.
Consider `Cc1[nH]c(-c2cc(C(=O)O)ccc2Oc2ccccc2)c2c1C(=O)CCC2` [Example 54, 3-(3-methyl-4-oxo-4,5,6,7-tetrahydro-2H-isoindol-1-yl)-4-phenoxybenzoic Acid], for which the Ki in assay [1] stood at 0.289 µM; in assay [2], 0.045 µM.
For `Cc1[nH]c(-c2cccc(OCc3ccccc3)c2)c2c1C(=O)CCC2` [Example 14, 1-[3-(benzyloxy)phenyl]-3-methyl-2,5,6,7-tetrahydro-4H-isoindol-4-one], in that order: 22.2 µM and 9.06 µM.
Consider `Cc1[nH]c(-c2cc(NS(C)(=O)=O)ccc2Oc2ccccc2)c2c1C(=O)CC(c1ccccc1)C2` (centres unmarked) [Example 72, N-[3-(3-methyl-4-oxo-6-phenyl-4,5,6,7-tetrahydro-2H-isoindol-1-yl)-4-phenoxyphenyl]methanesulfonamide], for which the Ki in assay [1] was found to be 22.2 µM; in assay [2], 7.28 µM.
For `Cc1[nH]c(-c2ccc3c(c2)OCO3)c2c1C(=O)CCC2` [Example 16, 1-(1,3-benzodioxol-5-yl)-3-methyl-2,5,6,7-tetrahydro-4H-isoindol-4-one], in that order: 8.42 µM and 3.77 µM.
For `Cc1[nH]c(-c2ccccc2OCc2cccc3cccnc23)c2c1C(=O)CCC2` [Example 35, 3-methyl-1-[2-(quinolin-8-ylmethoxy)phenyl]-2,5,6,7-tetrahydro-4H-isoindol-4-one], in that order: 11 µM and 9.14 µM.
For `COc1ccccc1-c1[nH]c(C)c2c1CCCC2=O` [Example 6, 1-(2-methoxyphenyl)-3-methyl-2,5,6,7-tetrahydro-4H-isoindol-4-one], in that order: 9.97 µM and 2.7 µM.
For `Cc1[nH]c(-c2ccccc2O)c2c1C(=O)CCC2` [Example 28, 1-(2-hydroxyphenyl)-3-methyl-2,5,6,7-tetrahydro-4H-isoindol-4-one], the inhibition constant (Ki) in assay [1] turned out to be 15.1 µM; in assay [2] it was 5.31 µM.
For `Cc1[nH]c(-c2ccccc2N2CCOCC2)c2c1C(=O)CC(C)(C)C2` [Example 61, 3,6,6-trimethyl-1-[2-(morpholin-4-yl)phenyl]-2,5,6,7-tetrahydro-4H-isoindol-4-one], in that order: 1.68 µM and 2.2 µM.
The corresponding values for “3-methyl-6-(2-methylpropyl)-1-(2-phenoxyphenyl)-2,5,6,7-tetrahydro-4H-isoindol-4-one [Example 68]” are 22.2 µM and 3.62 µM.
For `COc1ccc(-c2[nH]c(C)c3c2CCCC3=O)cc1` [Example 11, 1-(4-methoxyphenyl)-3-methyl-2,5,6,7-tetrahydro-4H-isoindol-4-one], in that order: 5.46 µM and 1.88 µM.
Consider `Cc1[nH]c(-c2ccccc2COc2ccccc2)c2c1C(=O)CCC2` [Example 24, 3-methyl-1-[2-(phenoxymethyl)phenyl]-2,5,6,7-tetrahydro-4H-isoindol-4-one], for which the Ki is 2.3 µM in assay [1] and 1.2 µM in assay [2].
For `Cc1[nH]c(-c2ccccc2Cl)c2c1C(=O)CCC2` [Example 15, 1-(2-chlorophenyl)-3-methyl-2,5,6,7-tetrahydro-4H-isoindol-4-one], in that order: 22.2 µM and 1.14 µM.
In the case of `Cc1[nH]c(-c2ccccc2OCC2CCCC2)c2c1C(=O)CCC2` [Example 30, 1-[2-(cyclopentylmethoxy)phenyl]-3-methyl-2,5,6,7-tetrahydro-4H-isoindol-4-one], the Ki stood at 4.78 µM in assay [1] and 1.25 µM in assay [2].
For `Cc1[nH]c(-c2ccc3c(c2)OCO3)c2c1C(=O)CC(C)(C)C2` [Example 58, 1-(1,3-benzodioxol-5-yl)-3,6,6-trimethyl-2,5,6,7-tetrahydro-4H-isoindol-4-one], in that order: 0.513 µM and 0.932 µM.
Turning to `Cc1ccc(C)c(-c2[nH]c(C)c3c2CC(C)(C)CC3=O)c1` [Example 60, 1-(2,5-dimethylphenyl)-3,6,6-trimethyl-2,5,6,7-tetrahydro-4H-isoindol-4-one], the Ki was found to be 2.7 µM in assay [1] and 3.37 µM in assay [2].
For `Cc1ccc(-c2[nH]c(C)c3c2CCCC3=O)cc1` [Example 4, 3-methyl-1-(4-methylphenyl)-2,5,6,7-tetrahydro-4H-isoindol-4-one], in that order: 15.9 µM and 2.49 µM.
The corresponding values for `Cc1[nH]c(-c2cc(NC(=O)c3ccc[nH]3)ccc2Oc2ccc(F)cc2F)c2c1C(=O)CCC2` [Example 51, N-[4-(2,4-difluorophenoxy)-3-(3-methyl-4-oxo-4,5,6,7-tetrahydro-2H-isoindol-1-yl)phenyl]-1H-pyrrole-2-carboxamide] are 0.943 µM and 0.164 µM.
As to `Cc1[nH]c(-c2ccccc2)c2c1C(=O)CC(C)(C)C2` [Example 59, 3,6,6-trimethyl-1-phenyl-2,5,6,7-tetrahydro-4H-isoindol-4-one], the figures for the Ki in assay [1] and in assay [2] were 2.52 µM and 3.23 µM, respectively.
`COc1cccc(-c2[nH]c(C)c3c2CCCC3=O)c1` [Example 20, 1-(3-methoxyphenyl)-3-methyl-2,5,6,7-tetrahydro-4H-isoindol-4-one]: the Ki in assay [1] was found to be 4.49 µM; in assay [2] it was 1.77 µM.
As for `Cc1[nH]c(-c2ccccc2Oc2ccccc2)c2c1C(=O)CCC2` [Example 2, 3-methyl-1-(2-phenoxyphenyl)-2,5,6,7-tetrahydro-4H-isoindol-4-one], the Ki in assay [1] was found to be 0.504 µM; in assay [2] it was 0.255 µM.
The corresponding values for `Cc1[nH]c(-c2cc(N)ccc2Oc2ccccc2)c2c1C(=O)CC(C)C2` (centres unmarked) [Example 66, 1-(5-amino-2-phenoxyphenyl)-3,6-dimethyl-2,5,6,7-tetrahydro-4H-isoindol-4-one] are 0.069 µM and 0.058 µM.
The corresponding values for `Cc1ccc(-c2[nH]c(C)c3c2CCCC3=O)cc1C` [Example 12, 1-(3,4-dimethylphenyl)-3-methyl-2,5,6,7-tetrahydro-4H-isoindol-4-one] are 10.4 µM and 2.86 µM.
The corresponding values for `Cc1[nH]c(-c2ccccc2OCc2ccccc2)c2c1C(=O)CC(C)(C)C2` [Example 62, 1-[2-(benzyloxy)phenyl]-3,6,6-trimethyl-2,5,6,7-tetrahydro-4H-isoindol-4-one] are 1.75 µM and 1.5 µM.
In the case of `COC(=O)c1ccc(Oc2ccccc2)c(-c2[nH]c(C)c3c2CCCC3=O)c1` [Example 53, methyl 3-(3-methyl-4-oxo-4,5,6,7-tetrahydro-2H-isoindol-1-yl)-4-phenoxybenzoate], the Ki in assay [1] was 3.67 µM; in assay [2] it was 0.927 µM.
Turning to `Cc1[nH]c(-c2cccc3cc[nH]c23)c2c1C(=O)CCC2` [Example 22, 1-(1H-indol-7-yl)-3-methyl-2,5,6,7-tetrahydro-4H-isoindol-4-one], the Ki in assay [1] came to 8.21 µM; in assay [2], 2.47 µM.
With `Cc1[nH]c(-c2ccccc2Oc2ccccc2)c2c1C(=O)CC(C)(C)C2` [Example 63, 3,6,6-trimethyl-1-(2-phenoxyphenyl)-2,5,6,7-tetrahydro-4H-isoindol-4-one], the Ki came to 1.03 µM in assay [1] and 0.786 µM in assay [2].
Take `Cc1cc(C)cc(-c2[nH]c(C)c3c2CCCC3=O)c1` [Example 17, 1-(3,5-dimethylphenyl)-3-methyl-2,5,6,7-tetrahydro-4H-isoindol-4-one]: the Ki in assay [1] worked out at 17.5 µM; in assay [2] it was 5.51 µM.
